Converted amounts (≈) assume the structure as drawn.
Legend:
[1] = system: Mycobacterium tuberculosis; experiment: Antitubercular activity against Mycobacterium tuberculosis H37Ra assessed as reduction in microbial growth incubated for 5 days by resazurin microtiter assay; type: functional; settings: 120 h, time 5 day
[2] = Cytotoxicity against human THP-1 cells assessed as reduction in cell viability incubated for 48 hrs by resazurin assay; type: toxicity, cell-based
[3] = Selectivity index, ratio of CC50 for cytotoxicity against human THP-1 cells to MIC90 for antitubercular activity against Mycobacterium tuberculosis H37Ra; type: toxicity, cell-based; settings: read-out: Selectivity Index
[4] = Stability of compound in simulated physiological fluid assessed as remaining compound at pH 7.4 measured upto 120 mins by UPLC analysis; type: ADME; settings: read-out: Stability
[5] = Half life in Sprague-Dawley rat at 50 mg/kg, po measured for 5 to 1440 mins by LC-MS/MS analysis; type: ADME, organism-based; settings: in vivo, time 5-1440 min
[6] = Stability of compound in simulated intestinal fluid assessed as remaining compound at pH 6.8 measured upto 120 mins by UPLC analysis; type: ADME; settings: read-out: Stability
[7] = Stability of compound in simulated gastric fluid assessed as remaining compound at pH 1.2 measured upto 120 mins by UPLC analysis; type: ADME; settings: read-out: Stability
[8] = Apparent volume of distribution in Sprague-Dawley rat at 50 mg/kg, po measured for 5 to 1440 mins by LC-MS/MS analysis; type: ADME, organism-based; settings: in vivo, time 5-1440 min
[9] = Stability of compound in rat plasma assessed as remaining compound measured upto 120 mins by UPLC analysis; type: ADME, cell-free; settings: read-out: Stability
[10] = Cmax in Sprague-Dawley rat at 50 mg/kg, po measured for 5 to 1440 mins by LC-MS/MS analysis; type: ADME, organism-based; settings: in vivo, time 5-1440 min
[11] = Tmax in Sprague-Dawley rat at 50 mg/kg, po measured for 5 to 1440 mins by LC-MS/MS analysis; type: ADME, organism-based; settings: in vivo, time 5-1440 min
[12] = MRT in Sprague-Dawley rat at 50 mg/kg, po measured for 5 to 1440 mins by LC-MS/MS analysis; type: ADME, organism-based; settings: in vivo, time 5-1440 min
[13] = system: Mycobacterium tuberculosis; experiment: Antitubercular activity against Mycobacterium tuberculosis H37Rv assessed as reduction in microbial growth by BACTEC 460-radiometric assay; type: functional
[14] = system: Mycobacterium tuberculosis; experiment: Antitubercular activity against Mycobacterium tuberculosis H37Rv assessed as reduction in microbial growth by microplate alamar blue assay; type: functional
[15] = system: Mycobacterium tuberculosis; experiment: Antitubercular activity against Mycobacterium tuberculosis H37Ra assessed as reduction in microbial growth at 2 ug/ml incubated for 5 days by resazurin microtiter assay relative to control; type: functional; settings: 120 h, time 5 day
[16] = system: Mycobacterium tuberculosis; experiment: Antitubercular activity against Mycobacterium tuberculosis H37Ra assessed as reduction in microbial growth at 6 ug/ml incubated for 5 days by resazurin microtiter assay relative to control; type: functional; settings: 120 h, time 5 day

| Structure (SMILES) | MIC90 [1] | other results |
| --- | --- | --- |
| CC1=C(C(=O)NCc2cn(-c3ccc(C)cc3)nn2)C(c2ccc(Cl)cc2)C2=C(CC(C)(C)CC2=O)N1 (stereo not given) | 6.44 µg/mL | CC50 at 48 h [2]: 44.3 µg/mL (≈ 85.9 µM); selectivity ratio [3]: 6.88 |
| CC1=C(C(=O)NCc2cn(Cc3ccccc3)nn2)C(c2ccccc2)C2=C(CC(C)(C)CC2=O)N1 (stereo not given) | > 25 µg/mL | – |
| COc1cc(C2C(C(=O)NCc3cn(-c4ccccc4)nn3)=C(C)NC3=C2C(=O)CC(C)(C)C3)cc(OC)c1OC (stereo not given) | > 25 µg/mL | – |
| COc1ccc(-n2cc(CNC(=O)C3=C(C)NC4=C(C(=O)CC(C)(C)C4)C3c3cccc(Cl)c3)nn2)cc1 (stereo not given) | > 25 µg/mL | – |
| CC1=C(C(=O)NCc2cn(-c3ccc(F)cc3)nn2)C(c2ccc(Cl)cc2)C2=C(CC(C)(C)CC2=O)N1 (stereo not given) | 25.9 µg/mL | – |
| COc1cc(C2C(C(=O)NCc3cn(-c4cccc(C(F)(F)F)c4)nn3)=C(C)NC3=C2C(=O)CC(C)(C)C3)cc(OC)c1OC (stereo not given) | > 25 µg/mL | – |
| COc1ccc(C2C(C(=O)NCc3cn(-c4cccc(C(F)(F)F)c4)nn3)=C(C)NC3=C2C(=O)CC(C)(C)C3)cc1 (stereo not given) | > 25 µg/mL | – |
| CC1=C(C(=O)NCc2cn(-c3ccccc3)nn2)C(c2ccccc2)C2=C(CC(C)(C)CC2=O)N1 (stereo not given) | > 25 µg/mL | – |
| CC1=C(C(=O)NCc2cn(-c3ccc(C)cc3)nn2)C(c2ccccc2)C2=C(CC(C)(C)CC2=O)N1 (stereo not given) | 24.1 µg/mL | – |
| COc1cc(C2C(C(=O)NCc3cn(-c4ccc(F)cc4)nn3)=C(C)NC3=C2C(=O)CC(C)(C)C3)cc(OC)c1OC (stereo not given) | > 25 µg/mL | – |
| CC1=C(C(=O)NCc2cn(-c3ccc(F)cc3)nn2)C(c2cccs2)C2=C(CC(C)(C)CC2=O)N1 (stereo not given) | > 25 µg/mL | – |
| COc1ccc(-n2cc(CNC(=O)C3=C(C)NC4=C(C(=O)CC(C)(C)C4)C3c3cccs3)nn2)cc1 (stereo not given) | > 25 µg/mL | – |
| CC1=C(C(=O)NCc2cn(-c3ccccc3)nn2)C(c2ccc(F)cc2)C2=C(CC(C)(C)CC2=O)N1 (stereo not given) | 12.1 µg/mL | – |
| CC1=C(C(=O)NCc2cn(-c3ccc(Cl)cc3)nn2)C(c2scnc2C)C2=C(CC(C)(C)CC2=O)N1 (stereo not given) | > 25 µg/mL | – |
| CC1=C(C(=O)NCc2cn(-c3ccc(C)cc3)nn2)C(c2ccc(F)cc2)C2=C(CC(C)(C)CC2=O)N1 (stereo not given) | 6.24 µg/mL | remaining at 2 h [4]: ≥ 70%; half-life [5]: 4.16 h; CC50 at 48 h [2]: > 99.8 µg/mL; remaining at 2 h [6]: ≥ 70%; remaining at 2 h [7]: ≥ 70%; Vd(app) [8]: 0.02778 L/kg; remaining at 2 h [9]: ≥ 70%; Cmax [10]: 1400 ng/mL; Tmax [11]: 1.33 h; MRT [12]: 6.69 h; selectivity ratio [3]: > 16 |
| CC1=C(C(=O)NCc2cn(-c3ccc(C)cc3)nn2)C(c2scnc2C)C2=C(CC(C)(C)CC2=O)N1 (stereo not given) | > 25 µg/mL | – |
| COc1ccc(-n2cc(CNC(=O)C3=C(C)NC4=C(C(=O)CC(C)(C)C4)C3c3ccc(Cl)cc3)nn2)cc1 (stereo not given) | 6.64 µg/mL | CC50 at 48 h [2]: 64.6 µg/mL (≈ 121 µM); selectivity ratio [3]: 9.73 |
| COc1ccc(C2C(C(=O)NCc3cn(-c4ccccc4)nn3)=C(C)NC3=C2C(=O)CC(C)(C)C3)cc1 (stereo not given) | > 25 µg/mL | – |

| Structure (SMILES) | MIC90 [1] | other results |
| --- | --- | --- |
| COC(=O)C1=C(C)NC(C)=C(C2=NN(C(C)=O)C(c3ccccc3)C2)C1c1cccc([N+](=O)[O-])c1 (stereo not given) | – | MIC [13]: > 12.5 µg/mL |
| CC1=C(C(=O)NCc2cn(-c3ccccc3)nn2)C(c2ccc(Cl)cc2)C2=C(CC(C)(C)CC2=O)N1 (stereo not given) | 6.26 µg/mL | CC50 at 48 h [2]: 66.4 µg/mL (≈ 132 µM); selectivity ratio [3]: 10.6 |
| CC1=C(C(=O)NCc2cn(Cc3ccccc3)nn2)C(c2ccc(Cl)cc2)C2=C(CC(C)(C)CC2=O)N1 (stereo not given) | > 25 µg/mL | – |
| CC1=C(C(=O)NCc2cn(-c3ccc(Cl)cc3)nn2)C(c2ccccc2)C2=C(CC(C)(C)CC2=O)N1 (stereo not given) | 25.1 µg/mL | – |
| CC1=C(C(=O)NCc2cn(-c3ccc(C)cc3)nn2)C(c2ccc(Cl)cc2)C2=C(CCCC2=O)N1 (stereo not given) | > 25 µg/mL | – |
| COc1ccc(-n2cc(CNC(=O)C3=C(C)NC4=C(C(=O)CC(C)(C)C4)C3c3ccc(F)cc3)nn2)cc1 (stereo not given) | 6.44 µg/mL | CC50 at 48 h [2]: > 103 µg/mL; selectivity ratio [3]: > 16 |
| CC1=C(C(=O)NCc2cn(-c3ccccc3C(F)(F)F)nn2)C(c2ccc(Cl)cc2)C2=C(CC(C)(C)CC2=O)N1 (stereo not given) | > 25 µg/mL | – |
| COc1ccc(-n2cc(CNC(=O)C3=C(C)NC4=C(C(=O)CC(C)(C)C4)C3c3ccccn3)nn2)cc1 (stereo not given) | > 25 µg/mL | – |
| CC1=C(C(=O)NCc2cn(Cc3ccccc3)nn2)C(c2scnc2C)C2=C(CC(C)(C)CC2=O)N1 (stereo not given) | > 25 µg/mL | – |
| CC1=C(C(=O)NCc2cn(-c3ccccc3)nn2)C(c2scnc2C)C2=C(CC(C)(C)CC2=O)N1 (stereo not given) | > 25 µg/mL | – |
| COc1cc(-n2cc(CNC(=O)C3=C(C)NC4=C(C(=O)CC(C)(C)C4)C3c3ccc(Cl)cc3)nn2)cc(OC)c1OC (stereo not given) | > 25 µg/mL | – |
| COc1ccc(-n2cc(CNC(=O)C3=C(C)NC4=C(C(=O)CC(C)(C)C4)C3c3ccccc3Cl)nn2)cc1 (stereo not given) | 13.3 µg/mL | – |
| CC1=C(C(=O)NCc2cn(-c3ccc(C)cc3)nn2)C(c2ccc(F)cc2)C2=C(CCCC2=O)N1 (stereo not given) | 11.8 µg/mL | – |
| CC1=C(C(=O)NCc2cn(-c3ccccc3)nn2)C(c2cccs2)C2=C(CC(C)(C)CC2=O)N1 (stereo not given) | > 25 µg/mL | – |
| CCCCc1nc(Cl)c(C2C(C(=O)Nc3ccc(F)cc3)=C(C)NC(C)=C2C(=O)Nc2ccc(F)cc2)n1Cc1ccccc1 | – | MIC [14]: 0.02 µg/mL |
| CC1=C(C(=O)NCc2cn(-c3ccc(C(C)C)cc3)nn2)C(c2ccc(Cl)cc2)C2=C(CC(C)(C)CC2=O)N1 (stereo not given) | 27.2 µg/mL | – |
| CO[C@H]1/C=C/O[C@@]2(C)Oc3c(C)c(O)c4c(O)c(c(/C=N/N5CCN(C)CC5)c(O)c4c3C2=O)NC(=O)/C(C)=C\C=C\[C@H](C)[C@H](O)[C@@H](C)[C@@H](O)[C@@H](C)[C@H](OC(C)=O)[C@@H]1C [RIFAMPIN] | – | inhibition at 2 µg/mL [15]: > 99% |
| CN[C@@H]1[C@H](O[C@H]2[C@H](O[C@H]3[C@H](O)[C@@H](O)[C@H](N=C(N)N)[C@@H](O)[C@@H]3N=C(N)N)O[C@@H](C)[C@]2(O)C=O)O[C@@H](CO)[C@H](O)[C@H]1O [STREPTOMYCIN] | – | inhibition at 6 µg/mL [16]: > 99% |
